Data reported in US12421217B2, “Pyrazine derivative or salt thereof, and use of same” (FUJIFILM Corporation, priority 2019, dated 2025).

Assays:
[1] = tested on: human myeloid leukemia cell line HL60; assay: Cell growth test (Cell Titer Glo); assay type: cell-based; details: HL-60, 72 h, HL60 cells, 3 days, read-out: Cell growth inhibitory effect (GI50)
Method: The cell growth test was carried out using the human myeloid leukemia cell line HL60 (available from ATCC, CRL-240). As a culture medium of HL60 cells, RPMI 1640 (available from FUJIFILM Wako Pure Chemical Corporation, 189-02025) supplemented with 10% fetal bovine serum (available from Thermo Fisher Scientific, Inc., 10437-028), and 1% penicillin-streptomycin (10,000 U/mL, available from Thermo Fisher Scientific, Inc., 15140-122) was used. HL60 cells were seeded on a 384-well plate (available from Corning Inc., 4588) at a cell density of 1×10^3 cells/20 μL/well. After culturing overnight, 5 μL of the test compound having a predetermined concentration was added, and 3 days later, 25 μL of Cell Titer Glo (registered trademark) Luminescent Cell Viability Assay (available from Promega Corporation, G7573) was added, and then the amount of luminescence was measured using an EnVision plate reader (available from PerkinElmer, Inc.). Since the amount of luminescence is proportional to the intracellular concentration of adenosine triphosphate (ATP), the amount of luminescence was used as an indicator of the number of viable cells. The growth inhibitory concentration for each test compound concentration was calculated by the following expression.
(§1) The growth inhibition rate at each test compound concentration was determined, and the 50% growth inhibitory concentration [GI50 (nmol/L)] was calculated using XLfit. Growth inhibition rate (%)=(amount of luminescence in test compound-added well)/(amount of luminescence in DMSO-added well)×100
The abbreviations in the table have the following meanings. • A: GI50 value<100 nmol/L • B: 100 nmol/L≤GI50 value<1,000 nmol/L • C: 1,000 nmol/L≤GI50 value

[2] = target: T1, recombinant human DHODH (Homo sapiens, UniProt Q02127); assay: Enzyme reaction inhibition test (DHODH enzyme assay, DCIP quenching); assay type: biochemical; details: DCIP absorbance 600 nm, 50 minutes, read-out: Enzyme reaction inhibitory effect (IC50)
T1 construct: DHODH, 31-395 aa, Human, His tag, E. coli, ATGP1615; His tag; purchased ATGen Co. Ltd. ATGP1615; host or cells: E. coli
T1 sequence (Q02127 31-395): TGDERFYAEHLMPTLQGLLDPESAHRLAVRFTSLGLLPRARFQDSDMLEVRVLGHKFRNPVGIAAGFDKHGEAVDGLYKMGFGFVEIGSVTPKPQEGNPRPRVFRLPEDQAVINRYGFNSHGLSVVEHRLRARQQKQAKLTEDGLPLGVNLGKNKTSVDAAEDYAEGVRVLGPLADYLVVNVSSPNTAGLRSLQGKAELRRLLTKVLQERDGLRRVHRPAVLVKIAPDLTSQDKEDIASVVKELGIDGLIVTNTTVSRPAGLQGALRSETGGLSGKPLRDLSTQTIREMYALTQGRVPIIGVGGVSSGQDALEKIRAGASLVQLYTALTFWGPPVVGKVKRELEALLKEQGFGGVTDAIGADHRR
Method: The DHODH enzyme assay was carried out with reference to “Benjamin Bader, Wolfgang Knecht, Markus Fries, and Monika Loffler. Expression, Purification, and Characterization of Histidine-Tagged Rat and Human Flavoenzyme Dihydroorotate Dehydrogenase. Protein Expression and Purification, 1998, 13, 414-422.”
The DHODH activity was evaluated using an enzyme assay system that is coupled with an assay in which a blue coloring agent 2,6-dichlorophenol indophenol (DCIP, available from MP Biomedicals, LLC, MP150118) is quenched. Purified recombinant human DHODH (DHODH, 31-395 aa, Human, His tag, E. coli, ATGP1615) was purchased from ATGen Co. Ltd. The enzyme assay was carried out in a 384-well plate using a buffer solution containing 100 mmol/L Hepes (available from Dojindo Laboratories, 342-01375), 400 mmol/L NaCl (available from FUJIFILM Wako Pure Chemical Corporation, 191-01665), 10% Glycerol (available from FUJIFILM Wako Pure Chemical Corporation, 075-00616), 0.05% Triton X-100 (available from Sigma-Aldrich Co., LLC, T8787-100ML), 0.2 mmol/L Ubiquinone-10 (available from FUJIFILM Wako Pure Chemical Corporation, 216-00761), 0.1 mmol/L DHO (L-dihydroorotic acid, available from Sigma-Aldrich Co., LLC, D7128), 0.5% DMSO (dimethylsulfoxide, available from FUJIFILM Wako Pure Chemical Corporation, 047-29353), 0.175 μg/mL DHODH, and 0.12 mmol/L DCIP and having a pH adjusted to 8.0 by adding 5 mol/L potassium hydroxide (available from FUJIFILM Wako Pure Chemical Corporation, 168-21815). A test compound with a predetermined concentration was added using Biomek NX (available from Beckman Coulter Inc.), and the enzymatic reaction was started by adding the substrate. The enzyme activity was assessed by measuring the decrease in DCIP absorbance (600 nm) for 50 minutes using an EnVision plate-reading spectrophotometer (available from PerkinElmer, Inc.).
as §1, with “enzyme reaction” for “growth”, “enzyme reaction inhibition” for “growth inhibitory”, “[IC50” for “[GI50”, “Enzyme reaction” for “Growth”
The abbreviations in the table have the following meanings. • A: IC50 value<10 nmol/L • B: 10 nmol/L≤IC50 value<100 nmol/L • C: 100 nmol/L≤IC50 value

| SMILES | GI50 [1] | IC50 [2] |
| --- | --- | --- |
| COC(=O)c1nc(C2CC2)cnc1Nc1cccc(C2=CCOCC2)c1OCC(F)(F)F [Example 1, methyl 6-cyclopropyl-3-((3-(3,6-dihydro-2H-pyran-4-yl)-2-(2,2,2-trifluoroethoxy)phenyl)amino)pyrazine-2-carboxylate] | 100 to 1000 nM | ≥ 100 nM |
| O=C(O)c1nc(C2CC2)cnc1Nc1cc(F)cc(C2=CCOCC2)c1OCC(F)(F)F [Example 5, 6-cyclopropyl-3-((3-(3,6-dihydro-2H-pyran-4-yl)-5-fluoro-2-(2,2,2-trifluoroethoxy)phenyl)amino) pyrazine-2-carboxylic acid] | < 100 nM | < 10 nM |
| O=C(O)c1nc(C2CC2)cnc1Nc1cc(F)cc(C2CCOCC2)c1OCC(F)(F)F [Example 6, 6-cyclopropyl-3-((5-fluoro-3-(tetrahydro-2H-pyran-4-yl)-2-(2,2,2-trifluoroethoxy)phenyl)amino) pyrazine-2-carboxylic acid] | < 100 nM | < 10 nM |
| O=C(O)c1nc(C2CC2)cnc1Nc1cc(F)cc(C2CCOCC2)c1OC(F)F [Example 11, 6-cyclopropyl-3-((2-(difluoromethoxy)-5-fluoro-3-(tetrahydro-2H-pyran-4-yl)phenyl)amino)pyrazine-2-carboxylic acid] | < 100 nM | < 10 nM |
| CCc1c(Nc2ncc(C3CC3)nc2C(=O)O)cccc1C1CCOCC1 [Example 12, 6-cyclopropyl-3-((2-ethyl-3-(tetrahydro-2H-pyran-4-yl)phenyl)amino)pyrazine-2-carboxylic acid] | < 100 nM | < 10 nM |
| O=C(O)c1nc(C2CC2)cnc1Nc1cccc(C2=CCOCC2)c1OC(F)F [Example 14, 6-cyclopropyl-3-((2-(difluoromethoxy)-3-(3,6-dihydro-2H-pyran-4-yl)phenyl)amino)pyrazine-2-carboxylic acid] | 100 to 1000 nM | < 10 nM |
| O=C(O)c1nc(C2CC2)cnc1Nc1cc(F)cc(C2=CCOCC2)c1OC(F)F [Example 19-1] | 100 to 1000 nM | < 10 nM |
| CCOc1c(C2=CCOCC2)cc(F)c(F)c1Nc1ncc(C2CC2)nc1C(=O)O [Example 19-2] | 100 to 1000 nM | 10 to 100 nM |
| O=C(O)c1nc(C2CC2)cnc1Nc1cccc(C2=CCOCC2)c1OCC(F)F [Example 19-3] | 100 to 1000 nM | < 10 nM |
| Cc1c(Nc2ncc(C3CC3)nc2C(=O)O)cc(F)cc1C1=CCOCC1 [Example 19-4] | 100 to 1000 nM | 10 to 100 nM |
| CCOc1c(Nc2ncc(C3CC3)nc2C(=O)O)cc(F)cc1C1=CCOCC1 [Example 19-5] | 100 to 1000 nM | 10 to 100 nM |
| CC(Oc1c(Nc2ncc(C3CC3)nc2C(=O)O)cccc1C1=CCOCC1)C(F)(F)F (stereo not shown) [Example 19-6] | 100 to 1000 nM | 10 to 100 nM |
| O=C(O)c1nc(C2CC2)cnc1Nc1cccc(C2=CCOCC2)c1OCC(F)(F)C(F)(F)F [Example 19-7] | < 100 nM | < 10 nM |
| O=C(O)c1nc(C2CC2)cnc1Nc1cccc(C2=CCOCC2)c1OCCC(F)(F)F [Example 19-8] | < 100 nM | < 10 nM |
| O=C(O)c1nc(C2CC2)cnc1Nc1cccc(C2=CCOCC2)c1COCC(F)(F)F [Example 19-10] | 100 to 1000 nM | 10 to 100 nM |
| O=C(O)c1nc(C2CC2)cnc1Nc1cccc(C2CCOCC2)c1C1CC1 [Example 19-12] | 100 to 1000 nM | < 10 nM |
| CC(C)c1c(Nc2ncc(C3CC3)nc2C(=O)O)cccc1C1CCOCC1 [Example 19-13] | 100 to 1000 nM | < 10 nM |
| CC1=C(c2cccc(Nc3ncc(C4CC4)nc3C(=O)O)c2OCC(F)(F)F)CCOC1 [Example 19-14] | < 100 nM | < 10 nM |
| O=C(O)c1nc(C2CC2)cnc1Nc1cccc(C2CCOCC2)c1CCC(F)(F)F [Example 19-15] | < 100 nM | < 10 nM |

| SMILES | GI50 [1] | IC50 [2] |
| --- | --- | --- |
| CCCc1c(Nc2ncc(C3CC3)nc2C(=O)O)cccc1C1=CCOCC1 [Example 19-16] | 100 to 1000 nM | 10 to 100 nM |
| CCCCc1c(Nc2ncc(C3CC3)nc2C(=O)O)cccc1C1CCOCC1 [Example 19-17] | 100 to 1000 nM | < 10 nM |
| O=C(O)c1nc(C2CC2)cnc1Nc1cccc(C2CCOCC2)c1CC(F)(F)F [Example 19-18] | 100 to 1000 nM | 10 to 100 nM |
| O=C(O)c1nc(C2CC2)cnc1Nc1cccc(C2CCOCC2)c1CCF [Example 19-19] | ≥ 1000 nM | 10 to 100 nM |
| COc1c(Nc2ncc(C3CC3)nc2C(=O)O)cccc1C1=CCOCC1 [Example 19-20] | ≥ 1000 nM | 10 to 100 nM |
| CCOc1c(Nc2ncc(C3CC3)nc2C(=O)O)cccc1C1=CCOCC1 [Example 19-21] | 100 to 1000 nM | 10 to 100 nM |
| O=C(O)c1nc(C2CC2)cnc1Nc1cccc(C2=CCOCC2)c1F [Example 19-22] | ≥ 1000 nM | 10 to 100 nM |
| CCOc1ccc(Nc2ncc(C3CC3)nc2C(=O)O)c(OCC)c1C1=CCOCC1 [Example 19-23] | 100 to 1000 nM | 10 to 100 nM |
| CCOc1ccc(Nc2ncc(C3CC3)nc2C(=O)O)cc1C1=CCOCC1 [Example 19-24] | 100 to 1000 nM | 10 to 100 nM |
| CCOc1c(Nc2ncc(C3CC3)nc2C(=O)O)ccc(F)c1C1=CCOCC1 [Example 19-25] | 100 to 1000 nM | < 10 nM |
| O=C(O)c1nc(C2CC2)cnc1Nc1ccc(F)c(C2=CCOCC2)c1F [Example 19-26] | ≥ 1000 nM | 10 to 100 nM |
| O=C(O)c1nc(C2CC2)cnc1Nc1cccc(C2=CCOCC2)c1CCCF [Example 19-27] | 100 to 1000 nM | 10 to 100 nM |
| O=C(O)c1nc(C2CC2)cnc1Nc1cccc(C2CCOCC2)c1CCC(F)F [Example 19-28] | < 100 nM | < 10 nM |
| O=C(O)c1nc(C2CC2)cnc1Nc1cccc(C2CCOCC2)c1CC(F)F [Example 19-29] | < 100 nM | 10 to 100 nM |
| CC(C)c1cnc(Nc2cccc(C3=CCOCC3)c2OCC(F)(F)F)c(C(=O)O)n1 [Example 19-31] | 100 to 1000 nM | 10 to 100 nM |
| CCc1cnc(Nc2cccc(C3=CCOCC3)c2OCC(F)(F)F)c(C(=O)O)n1 [Example 19-32] | 100 to 1000 nM | 10 to 100 nM |
| Cc1cnc(Nc2cccc(C3=CCOCC3)c2OCC(F)(F)F)c(C(=O)O)n1 [Example 19-33] | ≥ 1000 nM | 10 to 100 nM |
| CCOC(=O)c1nc(C2CC2)cnc1Nc1cccc(C2=CCOCC2)c1OCC(F)(F)F [Example 20, ethyl 6-cyclopropyl-3-((3-(3,6-dihydro-2H-pyran-4-yl)-2-(2,2,2-trifluoroethoxy)phenyl)amino)pyrazine-2-carboxylate] | 100 to 1000 nM | ≥ 100 nM |
| CC(C)OC(=O)c1nc(C2CC2)cnc1Nc1cccc(C2=CCOCC2)c1OCC(F)(F)F [Example 21, isopropyl 6-cyclopropyl-3-((3-(3,6-dihydro-2H-pyran-4-yl)-2-(2,2,2-trifluoroethoxy)phenyl)amino)pyrazine-2-carboxylate] | ≥ 1000 nM | ≥ 100 nM |
